Several values for one entry are separate records, joined by “and”; a condition that tells them apart may be missing. Identical values can stand only once. Counter-ions that a name gives are not always drawn.
Columns and labels:
[1] = target: T1, SERT (Rattus norvegicus, UniProt P31652); experiment: [3H]5-HT release assay; conditions: for Emax [3H]5-HT release, 15 μM EG-1-149 / Emax [3H]5-HT release, NO EG-1-149: ±SD (n=6); for EMAX substrate-induced [3H]5-HT release, CONTROL: substrate alone (control), 100% = release by 100 μM tyramine, ±SD
T1 sequence (P31652 whole entry): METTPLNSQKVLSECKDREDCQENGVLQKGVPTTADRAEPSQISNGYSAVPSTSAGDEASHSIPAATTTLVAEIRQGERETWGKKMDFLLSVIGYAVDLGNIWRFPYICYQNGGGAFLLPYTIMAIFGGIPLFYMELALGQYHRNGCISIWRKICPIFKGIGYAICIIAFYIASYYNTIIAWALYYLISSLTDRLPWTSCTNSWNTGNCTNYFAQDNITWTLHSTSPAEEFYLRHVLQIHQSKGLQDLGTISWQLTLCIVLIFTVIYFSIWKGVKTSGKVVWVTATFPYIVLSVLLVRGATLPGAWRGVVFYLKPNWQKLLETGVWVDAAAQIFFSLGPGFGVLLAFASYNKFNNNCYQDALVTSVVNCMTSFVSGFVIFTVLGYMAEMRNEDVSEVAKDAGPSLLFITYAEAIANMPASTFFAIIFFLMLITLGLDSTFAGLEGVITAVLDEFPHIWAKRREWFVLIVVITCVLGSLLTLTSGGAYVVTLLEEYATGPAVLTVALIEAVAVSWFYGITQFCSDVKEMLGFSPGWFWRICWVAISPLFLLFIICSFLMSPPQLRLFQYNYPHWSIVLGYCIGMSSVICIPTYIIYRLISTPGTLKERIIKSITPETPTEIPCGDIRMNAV

[2] = target: T1, SERT; experiment: [3H]5-HT uptake inhibition assay; type: biochemical
[3] = test system: DAT; conditions: read-out: IC50 reuptake inhibition, DAT; ref Greiner et al., 2003; cited from earlier work
[4] = target: T1, SERT; experiment: biochemical
[5] = 1 μM test compound, substrate MDMA

## CNC(C)Cc1ccc2c(c1)OCO2 (racemic) [(±)-MDMA]
[1]
  EC50: 0.088 ± 0.01 µM
[1]; read-out: EMAX substrate-induced [3H]5-HT release, CONTROL
  Emax: 105%

## CC(N)Cc1cccc(C(F)(F)F)c1 (single isomer, unassigned; (+)) [(+)-Norfenfluramine]
[1]; release time 5 min
  Emax [3H]5-HT release, 15 μM EG-1-149: 81 ± 3 %I
  Emax [3H]5-HT release, NO EG-1-149: 114 ± 8 %I
[1]; release time 5 min, listed as (+)-norfenfluramine
  Emax [3H]5-HT release, 15 μM EG-1-149: 81±3 %I
[1]; release time 15 min
  Emax [3H]5-HT release, 15 μM EG-1-149: 97 ± 4 %I
  Emax [3H]5-HT release, NO EG-1-149: 111 ± 5 %I
[1]; release time 15 min, listed as (+)-norfenfluramine
  Emax [3H]5-HT release, 15 μM EG-1-149: 97±4 %I
[1]
  EMAX substrate-induced [3H]5-HT release, CONTROL: 113±6%

## NCCc1c[nH]c2ccc(O)cc12 [5-HT]
[1]
  EMAX substrate-induced [3H]5-HT release, CONTROL: 85±1%

## Brc1ccc(CN2CCC(CCOC(c3ccccc3)c3ccccc3)CC2)cc1 [EG-1-149, 4-(2-(Benzhydryloxy)ethyl)-1-(4-bromobenzyl)piperidine oxalate]
[2]
  IC50: 1.76 µM
[3]
  IC50: 0.0051 ± 0.0004 µM
[4]
  Ki: 0.713 µM and 1.18 µM and 4.82 µM and 2.9 µM and 1.77 µM

## Cc1cc(NC(=O)Nc2ccc3c(ccn3C)c2)sn1 [SB204741, N-(1-Methyl-1H-indol-5-yl)-N′-(3-methylisothiazol-5-yl)urea]
[2]
  IC50: 38 µM
[1]; [5]
  effect on EMAX of MDMA-induced [3H]5-HT release: without altering the EMAX values
  rightward shift of the MDMA dose-response curve ([3H]5-HT release): 3–4 fold

## Clc1cccc(N2CCNCC2)c1 [mCPP, meta-chlorophenylpiperazine]
[1]
  EMAX substrate-induced [3H]5-HT release, CONTROL: 94±3% and 91±1%

Reference: paper PMC2941209 (Synapse (New York, N.Y.), 2010)
